In brackets after ≈: the same amount, converted by molar mass. Read-outs that look alike come from different tables or passages of the source.
Assays:
[1] = system: ESBL enzymes from K. pneumoniae S48 producing Metalo betalactamase (NDM4) and Class A (CTX-M, SHV, TEM) beta-lactamase; experiment: Beta-lactamase stability study (crude enzyme extract, then drug diffusion assay on E. coli ATCC 25922); type: biochemical; details: for Inhibition zone diameter after treatment with beta-lactamase enzyme: 40 μg/ml, zone on E. coli ATCC 25922
Protocol: (§1) Next, the beta-lactamase stability of some of these compounds was evaluated. In a typical stability study, ESBL enzymes from K. pneumoniae S48 producing Metalo betalactamase (NDM4) and Class A (CTX-M, SHV, TEM) beta-lactamase were isolated from freshly grown culture by 5 repetitive cycles of freeze and thaw in liquid nitrogen. […] After the stipulated incubation duration, the test compounds were extracted from the reaction mixture by the addition of 0.5 ml of Acetonitrile in 1:1 ratio (final concentration of test compound—40 μg/ml) and centrifuged at 12000 rpm for 2 min to separate precipitated protein. The activity of test compounds was measured from the supernatant by performing microbiological drug diffusion assay. For drug diffusion assay, Muller-Hinton Agar (MHA) seeded with E. coli ATCC 25922 was poured on to a bioassay plate placed on a flat surface and allowed to solidify. Appropriate concentration of the standalone and enzyme treated test compound dilutions were added to 6 mm wells cut with the help of a borer. The antibacterial activity of the test compounds was measured in terms of zones of inhibition appearing after 18-24 hours of incubation at 37° C. Measurement of diameter of zone of inhibition was undertaken to the nearest whole value with the help of ruler.

[2] = system: E. coli ATCC 25922; experiment: Microbiological drug diffusion assay, standalone compounds in absence of beta-lactamase enzymes; type: cell-based; details: Escherichia coli, read-out: Inhibition zone diameter
Protocol: as §1

[3] = target: T1, Pseudomonas PBP 1A (Pseudomonas aeruginosa, UniProt Q07806); experiment: PBP binding assay (Bocillin FL competition)
T1 construct: endogenous in cells
Protocol: (§2) The phrase “selective and high affinity PBP binder” refers to a PBP binder which binds to only one PBP with very high affinity. In general, the term “selective and high affinity PBP binder” also includes those binders where a substantial fraction of binder selectively binds to only one PBP with high affinity. […]. The term “IC50 value” of a compound refers to the concentration of the compound that reduces the binding of Bocillin-FL to PBPs by 50% as compared to when no compound was added to the reaction.
(§3) A compound of Formula (III) was prepared using the procedure disclosed in PCT International Application No. PCT/IB2012/054290 and was evaluated for its PBP binding affinity profile. […] The reaction mixtures were then denatured with 20 μl each of SDS-denaturing solution at 100° C. for 3 min PBPs were separated through 10% SDS polyacrylamide gel electrophoresis (Bio-Rad Laboratories, Hercules, Calif.). The protein gels were rinsed in water immediately after electrophoresis. […] […].

[4] = target: Pseudomonas PBP 5/6 (Pseudomonas aeruginosa, UniProt G3XD74); experiment: PBP binding assay (Bocillin FL competition); details: read-out: IC50
Protocol: as §2, §3

[5] = system: K pneumoniae J 102; experiment: MIC determination (agar dilution, CLSI); type: cell-based; details: K pneumoniae J 102 (TEM1, SHV5, OMP); standalone
Protocol: (§4) In a typical procedure for determining MIC values, overnight grown bacterial cultures were diluted appropriately and inoculated on the agar media containing doubling concentrations of the test compounds. Observation for growth or no growth was performed after 16-20 hours of incubation at 35±2° C. in ambient air. The overall procedure was performed as per Clinical and Laboratory Standards Institute (CLSI) recommendations (Clinical and Laboratory Standards Institute (CLSI), Performance Standards for Antimicrobial Susceptibility Testing, 20th Informational Supplement, M 100-S20, Volume 30, No. 1, 2010).

[6] = system: K pneumoniae J 104; experiment: MIC determination (agar dilution, CLSI); type: cell-based; details: K pneumoniae J 104 (TEM1, SHV11, CTX-M, OMP); standalone
Protocol: as §4

[7] = system: K pneumoniae J 105; experiment: MIC determination (agar dilution, CLSI); type: cell-based; details: K pneumoniae J 105 (TEM1, SHV2, CTX-M, OMP); standalone
Protocol: as §4

[8] = system: K pneumoniae J 101; experiment: MIC determination (agar dilution, CLSI); type: cell-based; details: K pneumoniae J 101 (TEM1, SHV12, OMP); standalone
Protocol: as §4

Sequence of Pseudomonas PBP 5/6 (G3XD74 entry or part of it): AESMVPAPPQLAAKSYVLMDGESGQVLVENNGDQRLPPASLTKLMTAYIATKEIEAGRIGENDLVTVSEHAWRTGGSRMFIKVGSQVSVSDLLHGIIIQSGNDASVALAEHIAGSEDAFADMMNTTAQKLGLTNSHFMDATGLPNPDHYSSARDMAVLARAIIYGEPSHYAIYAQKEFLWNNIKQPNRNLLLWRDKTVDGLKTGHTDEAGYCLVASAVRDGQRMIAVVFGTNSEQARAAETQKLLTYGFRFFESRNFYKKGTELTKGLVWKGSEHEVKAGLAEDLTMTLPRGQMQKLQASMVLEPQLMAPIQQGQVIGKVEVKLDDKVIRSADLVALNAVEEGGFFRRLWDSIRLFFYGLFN
T1 sequence (Q07806 whole entry): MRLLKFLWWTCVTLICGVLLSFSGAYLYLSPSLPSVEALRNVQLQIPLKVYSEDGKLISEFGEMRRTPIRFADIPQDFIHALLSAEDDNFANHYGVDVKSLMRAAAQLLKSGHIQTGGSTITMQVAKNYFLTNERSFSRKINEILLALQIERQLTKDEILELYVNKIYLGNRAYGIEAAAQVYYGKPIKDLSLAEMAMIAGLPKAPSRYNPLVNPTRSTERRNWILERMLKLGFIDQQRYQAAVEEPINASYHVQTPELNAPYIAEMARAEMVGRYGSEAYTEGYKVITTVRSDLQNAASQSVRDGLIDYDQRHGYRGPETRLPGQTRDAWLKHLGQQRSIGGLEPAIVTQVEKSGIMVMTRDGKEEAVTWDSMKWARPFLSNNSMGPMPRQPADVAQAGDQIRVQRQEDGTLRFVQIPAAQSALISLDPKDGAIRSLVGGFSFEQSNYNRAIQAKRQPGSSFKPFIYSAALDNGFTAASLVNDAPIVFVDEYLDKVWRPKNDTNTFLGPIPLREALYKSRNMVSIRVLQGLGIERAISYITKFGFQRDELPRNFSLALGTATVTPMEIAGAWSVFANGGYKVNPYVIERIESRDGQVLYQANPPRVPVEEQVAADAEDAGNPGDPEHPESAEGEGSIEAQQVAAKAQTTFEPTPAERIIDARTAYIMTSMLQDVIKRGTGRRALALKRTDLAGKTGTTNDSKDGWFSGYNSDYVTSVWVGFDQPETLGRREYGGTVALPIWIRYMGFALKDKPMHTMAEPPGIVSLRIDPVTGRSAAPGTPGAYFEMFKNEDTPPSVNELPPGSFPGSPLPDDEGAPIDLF

MIC [5] [µg/mL] | MIC [6] [µg/mL] | MIC [7] [µg/mL] | MIC [8] [µg/mL] | Structure (SMILES) | Inhibition zone diameter after treatment with beta-lactamase enzyme ([1]; 0 hour incubation at 37° C.) [mm] | Inhibition zone diameter after treatment with beta-lactamase enzyme ([1]; 1 hour incubation at 37° C.) [mm] | Inhibition zone diameter after treatment with beta-lactamase enzyme ([1]; 2 hours incubation at 37° C.) [mm] | Inhibition zone diameter after treatment with beta-lactamase enzyme ([1]; 24 hours incubation at 37° C.) [mm] | Stability to beta-lactamase (in words) ([1]; carbapenem hydrolyzing metallo beta-lactamase, up to 24 hours) | zone of inhibition at 40 µg/mL ([2]; ATCC25922, 0 h) [mm] | zone of inhibition at 40 µg/mL ([2]; ATCC25922, 1 h) [mm] | zone of inhibition at 40 µg/mL ([2]; ATCC25922, 2 h) [mm] | zone of inhibition at 40 µg/mL ([2]; ATCC25922, 24 h) [mm] | IC50 [3] [µM] | IC50 [4] [µM]
 |  |  |  | CC1(C)S[C@@H]2[C@H](/N=C/N3CCCCCC3)C(=O)N2[C@H]1C(=O)O [Mecillinam] | 15.5 | 12 | 0 | 0 | not stable to the beta-lactamase | 15.5 | 15.5 | 15.5 | 15.5 | > 12.3 | > 12.3
8 (≈ 20.9 µM) | 4 (≈ 10.4 µM) | 4 (≈ 10.4 µM) | 4 (≈ 10.4 µM) | C[C@@H](O)[C@H]1C(=O)N2C(C(=O)O)=C(S[C@@H]3CN[C@H](C(=O)N(C)C)C3)[C@H](C)[C@H]12 [Meropenem] |  |  |  |  |  |  |  |  |  |  | 
